Experiments:
Assay in all cases: Bliss excess, mean over the matrix (fraction); higher = more synergy
[1] = system: VMRC-RCZ (Kidney Carcinoma)
Method in brief: (§1)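 Cell lines grown in DMEM/F12 or RPMI with 10% FBS were plated in 1536-well plates and held 24 hours at 37°C, 5% CO2 before 72 hours of exposure to two-drug dose matrices, with DMSO typically at 0.2%. CellTiter-Glo 2.0 luminescence gave viability, which was converted to inhibition. Vehicle wells were set to 0 and blank wells to 1. Combination Emax is the second-highest inhibition in the matrix, and Bliss excess is the observed combination effect minus the expected EA + EB − EA·EB, where EA and EB are the single-agent effects.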

[2] = system: NCI-H929 (Plasma Cell Myeloma)
Method in brief: as §1

[3] = system: H9 (T-Cell Non-Hodgkin's Lymphoma)
Method in brief: as §1

[4] = system: DMS-114 (Small Cell Lung Carcinoma)
Method in brief: as §1

[5] = system: KU812 (Chronic Myelogenous Leukemia)
Method in brief: as §1

[6] = system: SK-GT-4 (Esophageal Adenocarcinoma)
Method in brief: as §1

[7] = system: CW-2 (Colorectal Carcinoma)
Method in brief: as §1

[8] = system: MOG-G-CCM (Low Grade Glioma)
Method in brief: as §1

[9] = system: JHH-4 (Hepatocellular Carcinoma)
Method in brief: as §1

[10] = system: KY821 (Acute Myeloid Leukemia)
Method in brief: as §1

RD (Rhabdomyosarcoma) = system: RD (Rhabdomyosarcoma)
Method in brief: as §1

[11] = system: 8505C (Thyroid Gland Carcinoma)
Method in brief: as §1

[12] = system: SU-DHL-5 (B-Cell Non-Hodgkin's Lymphoma)
Method in brief: as §1

[13] = system: NCI-H3122 (Lung Adenocarcinoma)
Method in brief: as §1

[14] = system: RPMI-8226 (Plasma Cell Myeloma)
Method in brief: as §1

[15] = system: NCCIT (Other Solid Carcinomas)
Method in brief: as §1

[16] = system: COR-L279 (Small Cell Lung Carcinoma)
Method in brief: as §1

[17] = system: PC-3 (Prostate Carcinoma)
Method in brief: as §1

G-361 (Melanoma) = system: G-361 (Melanoma)
Method in brief: as §1

[18] = system: NCI-H661 (Non-Small Cell Lung Carcinoma)
Method in brief: as §1

SMILES	Bliss excess [1]	Bliss excess [2]	Bliss excess [3]	Bliss excess [4]	Bliss excess [5]	Bliss excess [6]	Bliss excess [7]	Bliss excess [8]	Bliss excess [9]	Bliss excess [10]	Bliss excess (RD (Rhabdomyosarcoma))	Bliss excess [11]	Bliss excess [12]	Bliss excess [13]	Bliss excess [14]	Bliss excess [15]	Bliss excess [16]	Bliss excess [17]	Bliss excess (G-361 (Melanoma))	Bliss excess [18]
NC1(C(=O)N[C@@H](CCO)c2ccc(Cl)cc2)CCN(c2ncnc3[nH]ccc23)CC1 [Capivasertib] + C[C@@H]1COCCN1C2=NC(=NC(=C2)C3(CC3)[S@](=N)(=O)C)C4=C5C=CNC5=NC=C4 [AZD6738] (first compound max 10 µM, 7x7, partner max 10 µM)	-0.0106	-0.0009	0.0057	-0.0067	0.0357	-0.0871	-0.0298	-0.0929	0.0086	-0.0558	-0.0453	-0.0138	0.0087	-0.0758	-0.0344	-0.0139	0.0329	-0.0389	-0.0397	-0.0645
NC1(C(=O)N[C@@H](CCO)c2ccc(Cl)cc2)CCN(c2ncnc3[nH]ccc23)CC1 [Capivasertib] + CCN(CCO)CCCOc1ccc2c(Nc3cc(CC(=O)Nc4cccc(F)c4)[nH]n3)ncnc2c1 [AZD2811] (first compound max 10 µM, 7x7, partner max 1 µM)	-0.046	0.025	-0.0361	0.0039	0.0173	-0.016	-0.0348	-0.0373	-0.0088	0.052	-0.0211	0.0134	-0.0225	-0.0428	-0.0101	0.0475	-0.054	0.0151	0.0426	-0.0058
Cc1cc2ncnn2cc1Nc1ncc2c(n1)n(C1CCOCC1)c(=O)n2C [AZD7648] + O=C(c1cc(Cc2n[nH]c(=O)c3ccccc23)ccc1F)N1CCN(C(=O)C2CC2)CC1 [Olaparib] (first compound max 10 µM, 7x7, partner max 10 µM)	-0.0546	-0.0192	-0.0049	-0.0092	-0.0425	-0.0258	-0.0201	-0.0269	-0.0213	-0.0003	-0.0508	-0.0202	0.0091	-0.0505	-0.038	-0.0112	-0.0256	-0.0263	-0.043	-0.0373
NC1(C(=O)N[C@@H](CCO)c2ccc(Cl)cc2)CCN(c2ncnc3[nH]ccc23)CC1 [Capivasertib] + CC(=O)c1c(C)c2cnc(Nc3ccc(N4CCNCC4)cn3)nc2n(C2CCCC2)c1=O [Palbociclib] (first compound max 10 µM, 7x7, partner max 10 µM)	0.0321	-0.0066	-0.0671	-0.0203	0.0662	0.0029	0.0329	-0.0389	-0.0242	-0.0078	-0.0333	-0.0475	0.0287	0.0266	0.01	0.0183	-0.0443	0.0068	-0.0381	0.0204
COc1nnc2ccc(N3CCC(c4ccc(OCCN5CCN(C)C(=O)[C@H]5C)cc4)CC3)nn12 [AZD5153] + Cn1cnc2c(F)c(Nc3ccc(Br)cc3Cl)c(C(=O)NOCCO)cc21 [Selumetinib] (first compound max 1 µM, 7x7, partner max 10 µM)	-0.0486	-0.0068	0.0074	0.0443	0.0272	-0.0158	0.0215	-0.0198	0.0336	0.0027	0.0333	0.0049	0.0756	-0.0818	0.0745	-0.0845	-0.0778	-0.0598	-0.107	-0.0027
CCN(CCO)CCCOc1ccc2c(Nc3cc(CC(=O)Nc4cccc(F)c4)[nH]n3)ncnc2c1 [AZD2811] + O=C(c1cc(Cc2n[nH]c(=O)c3ccccc23)ccc1F)N1CCN(C(=O)C2CC2)CC1 [Olaparib] (first compound max 1 µM, 7x7, partner max 10 µM)	-0.0325	0.0305	-0.0965	-0.0127	-0.0189	0.0123	0.0119	-0.041	-0.0293	0.0512	0.0106	-0.0228	-0.0466	0.0018	-0.0137	-0.0195	-0.0125	-0.0231	-0.0295	-0.0062
Cc1c2c(nn1C)CSCc1cc(n(C)n1)CSc1cc(c3ccccc3c1)OCCCc1c(C(=O)O)n(C)c3c-2c(Cl)ccc13 [AZD5991] + C[C@@H](Nc1cc(F)cc(F)c1)c1cc(C(=O)N(C)C)cc2c(=O)cc(N3CCOCC3)oc12 [AZD8186] (first compound max 1 µM, 7x7, partner max 3 µM)	0.0141	-0.0218	-0.0485	-0.0338	-0.0554	-0.0185	0.0051	-0.0316	-0.0164	0.0034	0.0195	-0.0043	0.0109	-0.0639	-0.0219	-0.0176	-0.0011	0.0051	-0.0082	0.0181
CC1(C)CCC(CN2CCN(c3ccc(C(=O)NS(=O)(=O)c4ccc(NCC5CCOCC5)c([N+](=O)[O-])c4)c(Oc4cnc5[nH]ccc5c4)c3)CC2)=C(c2ccc(Cl)cc2)C1 [Venetoclax] + C1CN(CCC1(C(=O)N[C@@H](CCO)C2=CC=C(C=C2)Cl)N)C3=NC=NC4=C3C=CN4 [Capivasertib] (first compound max 1 µM, 7x7, partner max 3 µM)	-0.0236	-0.0099	-0.02	-0.0467	-0.046	-0.0728	-0.0259	-0.0568	-0.054	0.0303	-0.0226	-0.027	-0.0236	-0.0592	-0.0102	-0.0285	0.0055	-0.046	-0.0618	-0.0218
CN(CCO)CC[C@H](CSc1ccccc1)Nc1ccc(S(=O)(=O)NC(=O)c2ccc(N3CCC([C@@H](O)c4ccccc4-c4ccc(Cl)cc4)CC3)cc2)cc1S(=O)(=O)C(F)(F)F [AZD4320] + C[C@@H](Nc1cc(F)cc(F)c1)c1cc(C(=O)N(C)C)cc2c(=O)cc(N3CCOCC3)oc12 [AZD8186] (first compound max 1 µM, 7x7, partner max 3 µM)	-0.0096	-0.0036	0.063	-0.0096	0.0161	-0.0206	-0.0073	-0.018	0.0282	0.0053	0.0328	0.0411	0.0003	0.0005	0.0151	0.0346	0.0217	0.057	0.027	0.0424
NC1(C(=O)N[C@@H](CCO)c2ccc(Cl)cc2)CCN(c2ncnc3[nH]ccc23)CC1 [Capivasertib] + COc1nnc2ccc(N3CCC(c4ccc(OCCN5CCN(C)C(=O)[C@H]5C)cc4)CC3)nn12 [AZD5153] (first compound max 10 µM, 7x7, partner max 1 µM)	0.0171	-0.008	-0.0047	0.0259	-0.05	-0.0204	0.0459	0.0151	0.0028	-0.0351	0.0116	0.0008	-0.0179	-0.0131	0.0244	0.0382	0.0735	-0.0242	0.0218	0.0687
CN(CCO)CC[C@H](CSc1ccccc1)Nc1ccc(S(=O)(=O)NC(=O)c2ccc(N3CCC([C@@H](O)c4ccccc4-c4ccc(Cl)cc4)CC3)cc2)cc1S(=O)(=O)C(F)(F)F [AZD4320] + CN(C)CCCOc1ccc(-c2ccc3ncc4c(c3c2)n(C2CCOCC2)c(=O)n4C)cn1 [AZD0156] (first compound max 1 µM, 7x7, partner max 1 µM)	-0.058	-0.0267	-0.0151	-0.0466	-0.0086	-0.067	-0.007	-0.0155	-0.016	0.002	-0.0172	-0.0014	-0.066	-0.0486	0.0137	-0.0299	0.0041	-0.0266	0.001	-0.0232
Cc1cc2ncnn2cc1Nc1ncc2c(n1)n(C1CCOCC1)c(=O)n2C [AZD7648] + C[C@@H]1COCCN1C2=NC(=NC(=C2)C3(CC3)[S@](=N)(=O)C)C4=C5C=CNC5=NC=C4 [AZD6738] (first compound max 10 µM, 7x7, partner max 10 µM)	0.0115	-0.0268	-0.0034	-0.0072	0.0087	0.0068	0.0297	-0.062	0.013	0.0008	0.0425	-0.0223	0.0007	0.038	-0.0744	0.0116	0.0253	-0.0161	0.0105	0.0522
COc1cccc(OCCCN)c1-c1cc(Nc2cnc(C#N)cn2)n[nH]1 [Prexasertib] + CN(C)CCCOc1ccc(-c2ccc3ncc4c(c3c2)n(C2CCOCC2)c(=O)n4C)cn1 [AZD0156] (first compound max 1 µM, 7x7, partner max 1 µM)	-0.0279	-0.0523	0.0022	0.0778	-0.061	-0.0116	0.0498	-0.0184	-0.0346	-0.0228	-0.0008	-0.0089	-0.0089	0.0204	-0.0048	0.0017	0.0053	-0.0352	0.061	-0.0451
COc1nnc2ccc(N3CCC(c4ccc(OCCN5CCN(C)C(=O)[C@H]5C)cc4)CC3)nn12 [AZD5153] + C=CCn1c(=O)c2cnc(Nc3ccc(N4CCN(C)CC4)cc3)nc2n1-c1cccc(C(C)(C)O)n1 [AZD1775] (first compound max 1 µM, partner max 1 µM)	-0.0287	-0.0551	-0.0271	-0.0367	-0.0632	-0.0369	0.0072	-0.0646	0.0205	-0.0266	-0.0171	0.0074	0.0156	-0.0461	-0.0059	-0.0858	-0.0192	-0.0118	-0.0271	-0.019

Source: the supplement of paper PMC11061612
